In the oligonucleotide strings, read from the 5' end, every base follows the letter of its sugar. An asterisk marks phosphorothioate; unmarked linkages are phosphodiester. Other units and linkages are bracketed, terminal groups are in braces. A string of capitals states the bases alone. e = 2'-O-(2-methoxyethyl) (MOE); [5mC] = 5-methylcytosine; d = 2'-deoxy (DNA)
Each substance was assayed on human apolipoprotein B mRNA (assay: Inhibition of human apolipoprotein B mRNA levels in HepG2 cells, quantitative real-time PCR). Details: HepG2 cells treated with 150 nM of compound; averages from two experiments; quantitative real-time PCR.
Type: cell-based
Procedure, shortened: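 HepG2 cells at 80% confluency were transfected with antisense oligonucleotide using 3.75 μg/mL Lipofectin in Opti-MEM for 4-7 h and harvested 16-24 h after treatment. Apolipoprotein B mRNA was measured by real-time RT-PCR and normalized to GAPDH or RiboGreen total RNA. Percent inhibition came from untreated-control standard curves.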

Substance	% INHIB (inhibition of human apolipoprotein B mRNA levels)
271027 (e[5mC]*e[5mC]*e[5mC]*eA*eT*dG*d[5mC]*dT*d[5mC]*d[5mC]*dG*dT*dT*d[5mC]*dT*e[5mC]*eA*eG*eG*eT; antisense) [compound 271027]	26%
281640 (e[5mC]*eA*eG*eT*eG*d[5mC]*dA*dT*d[5mC]*dA*dA*dT*dG*dA*d[5mC]*eA*eG*eA*eT*eG; antisense) [compound 281640]	87%
281592 (eG*e[5mC]*eT*eG*eA*dT*d[5mC]*dA*dG*dA*dG*dT*dT*dG*dA*e[5mC]*eA*eA*eG*eG; antisense) [compound 281592]	56%
281587 (eA*eT*eG*eT*eG*dT*dA*d[5mC]*dT*dT*d[5mC]*d[5mC]*dG*dG*dA*eG*eG*eT*eG*e[5mC]; antisense) [compound 281587]	77%
270989 (antisense e[5mC]*e[5mC]*eA*eG*e[5mC]*dT*dT*dG*dA*dG*d[5mC]*dT*d[5mC]*dA*dT*eA*e[5mC]*e[5mC]*eT*eG) [compound 270989]	64%
281636 (antisense eG*e[5mC]*eA*eA*eG*dA*dG*dT*d[5mC]*d[5mC]*dA*d[5mC]*d[5mC]*dA*dA*eT*e[5mC]*eA*eG*eA) [compound 281636]	68%
281641 (e[5mC]*e[5mC]*eG*eA*eA*d[5mC]*d[5mC]*d[5mC]*dT*dT*dG*dA*d[5mC]*dA*dT*e[5mC]*eT*e[5mC]*e[5mC]*eT; antisense) [compound 281641]	72%
281642 (eG*e[5mC]*e[5mC]*eT*e[5mC]*dA*d[5mC]*dT*dA*dG*d[5mC]*dA*dA*dT*dA*eG*eT*eT*e[5mC]*e[5mC]; antisense) [compound 281642]	59%

Same assay, conditions: HepG2 cells; human apolipoprotein B mRNA; oligonucleotides targeting genomic sequence SEQ ID NO 334; averages from two experiments

Substance	% INHIB
301053 (eG*eT*e[5mC]*eG*e[5mC]*dA*dT*d[5mC]*dT*dT*d[5mC]*dT*dA*dA*d[5mC]*eG*eT*eG*eG*eG; antisense) [compound 301053]	45%
301159 (eT*eG*e[5mC]*eT*eT*dT*dA*d[5mC]*d[5mC]*dT*dA*d[5mC]*d[5mC]*dT*dA*eG*e[5mC]*eT*eA*e[5mC]; antisense) [compound 301159]	36%
301187 (antisense eG*e[5mC]*eT*e[5mC]*eT*d[5mC]*dT*d[5mC]*dT*dG*d[5mC]*d[5mC]*dA*d[5mC]*dT*e[5mC]*eT*eG*eA*eT) [compound 301187]	47%
301188 (antisense eA*eA*e[5mC]*eT*eT*d[5mC]*dT*dA*dA*dA*dG*d[5mC]*d[5mC]*dA*dA*e[5mC]*eA*eT*eT*e[5mC]) [compound 301188]	27%

Same assay, conditions: Table 1; HepG2 cells, 150 nM; averages from two experiments

Substance	% INHIB
147801 (antisense e[5mC]*eA*eG*eA*e[5mC]*d[5mC]*d[5mC]*dG*dA*d[5mC]*dT*d[5mC]*dG*dT*dG*eG*eA*eA*eG*eA) [compound 147801]	38%
147814 (antisense e[5mC]*e[5mC]*e[5mC]*eA*eA*dT*dA*dA*dG*dA*dT*dT*dT*dA*dT*eA*eA*e[5mC]*eA*eA) [compound 147814]	34%

Same assay, conditions: Table 12; HepG2 cells, 150 nM; averages from two experiments

Substance	% INHIB
281647 (eT*eG*eA*eG*eT*dG*dA*dG*dT*d[5mC]*dA*dA*dT*d[5mC]*dA*eG*e[5mC]*eT*eT*e[5mC]) [compound 281647]	73%

Source: patent publication US7803930B2, “Antisense modulation of apolipoprotein B-expression” (Isis Pharmaceuticals, Inc., priority 2002, dated 2010)
